Experimental data reported in US20150031641A1, “METHODS AND COMPOSITIONS FOR THE DIAGNOSIS, PROGNOSIS AND TREATMENT OF ACUTE MYELOID LEUKEMIA” (MEMORIAL SLOAN-KETTERING CANCER CENTER, priority 2012, published 2015).

Test system: patients with AML
Test: ECOG E1900 trial: overall survival after induction with high-dose vs standard-dose daunorubicin plus cytarabine, by genotype
Format: in vivo, human
Conditions: for outcome with dose-intensified induction therapy: univariate analysis
Method: The present disclosure is based on mutational analysis of 18 genes in 398 patients with AML younger than 60 years of age randomized to receive induction therapy including high-dose or standard dose daunorubicin. Prognostic findings were further validated in an independent set of 104 patients.
Mutational analysis was performed on diagnostic patient samples from the ECOG E1900 trial in the test (n=398) and validation (n=104) cohorts. The test cohort comprised of all E1900 patients for whom viably frozen cells were available for DNA extraction and mutational profiling. The validation cohort comprised of a second set of patients for whom samples were banked in Trizol, which was used to extract DNA for mutational studies.
Clinical characteristics of the patients studied compared to the complete E1900 trial cohort are in Table 1. The median follow-up time of patients included for analysis was 47.4 months from induction randomization. Cytogenetic analysis, fluorescent in situ hybridization, and RT-PCR for recurrent cytogenetic lesions was performed as described initially by Slovak et al. and utilized previously with central review by the ECOG Cytogenetics Committee (see ref. 16 and 17).
Survival time was measured from date of randomization to date of death for those who died and date of last follow-up for those who were alive at the time of analysis. Survival probabilities were estimated using the Kaplan-Meier method and compared across mutant and wild-type patients using the log-rank test. Multivariate analyses were conducted using the Cox model with forward selection. Proportional hazards assumption was checked by testing for a non-zero slope in a regression of the scaled Schoenfeld residuals on functions of time (Table 3).
When necessary, such as the analyses performed in various subsets, results of the univariate analyses were used to select the variables to be included in the forward variable search. Final multivariate models informed the development of novel risk classification rules. When indicated, p-values were adjusted to control the family wise error rate (FWER) using the complete null distribution approximated by resampling obtained through PROC MULTTEST in SAS or the multtest library in R^19. These adjustements were performed to adjust for the probability of making one or more false discoveries given that multiple pairwise tests were being performed. The only exception is adjustment for tests regarding effect of mutations on response to induction dose where a step-down Holm procedure was used to correct for multiple testing. All analyses were performed using SAS 9.2 (www.sas.com) and R 2.12 (www.r-project.org).
Mutual exclusivitity of pairs of mutations were evaluated by fourfold contingency tables and Fisher's exact test. The association between mutations and cytogenetic risk classification was tested using the chi-square test. Hierarchical clustering was performed using the Lance-Williams dissimilarity formula and complete linkage. Survival time was measured from date of randomization to date of death for those who died and date of last follow-up for those who were alive at the time of analysis. Survival probabilities were estimated using the Kaplan-Meier method and compared across mutant and wildtype patients using the log-rank test. Multivariate analyses were conducted using the Cox model. Proportional hazards assumption was checked by testing for a non-zero slope in a regression of the scaled Schoenfeld residuals on functions of time. […]

COc1cccc2c1C(=O)c1c(O)c3c(c(O)c1C2=O)C[C@@](O)(C(C)=O)C[C@@H]3O[C@H]1C[C@H](N)[C@H](O)[C@H](C)O1 [daunorubicin]
outcome with dose-intensified induction therapy (AML patients with MLL translocations): improved outcome
outcome with dose-intensified induction therapy (AML patients with NPM1 mutations): improved outcome
survival with high-dose daunorubicin according to treatment arm (DNMT3A mutant patients): associated with improved survival
impact of DNMT3A mutational status on the outcome with dose-intensive chemotherapy (patients receiving high-dose or standard-dose daunorubicin, FIG. 4B): significant impact
overall survival, high-dose relative to standard dose daunorubicin (patients with DNMT3A or NPM1 mutations or MLL translocations, cytarabine plus 90 vs 45 mg/m^2 daunorubicin induction): improved survival
